Among the data in patent US20110092547A1 (priority 2007, published 2011) are IC50 values, retold here.

The test deals with T1, human DGAT1 (Homo sapiens, UniProt O75907).
T1 construct: made in house; host or cells: Sf9 insect cells (recombinant baculovirus); membrane fraction
T1 sequence (O75907 1-488): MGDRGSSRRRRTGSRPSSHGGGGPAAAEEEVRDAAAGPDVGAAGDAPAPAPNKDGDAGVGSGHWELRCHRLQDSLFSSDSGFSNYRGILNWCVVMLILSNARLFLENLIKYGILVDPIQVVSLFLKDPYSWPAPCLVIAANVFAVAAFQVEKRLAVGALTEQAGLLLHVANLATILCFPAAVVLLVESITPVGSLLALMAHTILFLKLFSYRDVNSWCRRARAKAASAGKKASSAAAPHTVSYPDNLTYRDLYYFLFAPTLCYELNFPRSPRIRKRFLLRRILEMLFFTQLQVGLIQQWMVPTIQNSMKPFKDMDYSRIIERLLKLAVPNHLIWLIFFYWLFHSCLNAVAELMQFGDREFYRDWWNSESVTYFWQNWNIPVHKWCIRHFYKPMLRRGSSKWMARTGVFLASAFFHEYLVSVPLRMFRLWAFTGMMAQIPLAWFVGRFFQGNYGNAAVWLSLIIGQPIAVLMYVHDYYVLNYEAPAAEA
As to the kind of experiment: Human enzyme assay, further developed assay (14C oleoyl CoA, 96 well plate). The test is classed as biochemical. Conditions: human DGAT1 expressed in insect cell (sf9) membranes. As to the method: The in vitro assay to identify DGAT1 inhibitors uses human DGAT1 expressed in insect cell membranes as the enzyme source (Proc. Natl. Acad. Sci. 1998, 95, 13018-13023). Briefly, sf9 cells were infected with recombinant baculovirus containing human DGAT1 coding sequences and harvested after 48 h. Cells were lysed by sonication and membranes isolated by centrifuging at 28000 rpm for 1 h at 4° C. on a 41% sucrose gradient. The membrane fraction at the interphase was collected, washed, and stored in liquid nitrogen.
In a further developed assay, DGAT1 activity was assayed by a modification of the method described by Coleman (Methods in Enzymology 1992, 209, 98-102). Compound at 0.00003-10 μM (final cone) was incubated with 25 μg/ml (final cone) membrane protein, 5 mM MgCl2, and 100 μM 1,2 dioleoyl-sn-glycerol in a total assay volume of 200 μl in a 96 well plate. The reaction was started by adding ^14C oleoyl coenzyme A (30 μM final concentration) and incubated at room temperature for 30 minutes. The reaction was stopped by adding 300 μl 2-propanol:heptane 7:1. Radioactive triolein product was separated into the organic phase by adding 200 μl heptane and 200 μl 0.1 M carbonate buffer pH 9.5. DGAT1 activity was quantified by counting aliquots of the upper heptane layer by liquid scintillography.

As for `CC1(C(=O)O)CCC(Oc2ccc(NC(=O)c3nnc(Nc4ccc(F)c(Cl)c4)o3)cn2)CC1` (mixture of isomers) [Example 69, 4-(5-(5-(3-Chloro-4-fluorophenylamino)-1,3,4-oxadiazole-2-carboxamido)pyridin-2-yloxy)-1-methylcyclohexanecarboxylic acid], 4.3 nM corresponded to half-maximal inhibition (IC50).

In the case of `O=C(Nc1ccc(O[C@H]2CC[C@@H](C(=O)O)CC2)nc1)c1nnc(Nc2ccc(F)c(F)c2)o1` [Example 1, cis-4-[5-[[5-[(3,4-Difluorophenyl)amino]-1,3,4-oxadiazole-2-carbonyl]amino]pyridin-2-yl]oxycyclohexane-1-carboxylic acid], inhibition was half-maximal at 11 nM (IC50).

As to `C[C@]1(C(=O)O)CC[C@H](Oc2ccc(NC(=O)c3nnc(Nc4ccc(F)c(F)c4)o3)cn2)CC1` [Example 2, (1r,4r)-4-(5-(5-(3,4-difluorophenylamino)-1,3,4-oxadiazole-2-carboxamido)pyridin-2-yloxy)-1-methylcyclohexanecarboxylic acid], the midpoint of inhibition, the IC50, lay at 494 nM.

For `COC[C@]1(C(=O)O)CC[C@H](Oc2ccc(NC(=O)c3nnc(Nc4cc(F)c(F)cc4F)o3)cn2)CC1` [Example 3, 1-(Methoxymethyl)-4-(5-(5-(2,4,5-trifluorophenylamino)-1,3,4-oxadiazole-2-carboxamido)pyridin-2-yloxy)cyclohexanecarboxylic acid], the IC50 (commonly the concentration that inhibits the measured activity by half) was 35 nM.

In turn, `COC[C@]1(C(=O)O)CC[C@H](Oc2ccc(NC(=O)c3nnc(Nc4ccc(F)c(F)c4)o3)cn2)CC1` [Example 4, (1r,4r)-4-(5-(5-(3,4-Difluorophenylamino)-1,3,4-oxadiazole-2-carboxamido)pyridin-2-yloxy)-1-(methoxymethyl)cyclohexanecarboxylic acid] had an IC50 of 15 nM.

In turn, `O=C(Nc1ccc(O[C@H]2CC[C@@H](C(=O)O)CC2)nc1)c1nnc(Nc2cc(C(F)(F)F)c(F)cc2F)o1` [Example 5, (1s,4s)-4-(5-(5-(2,4-difluoro-5-(trifluoromethyl)phenylamino)-1,3,4-oxadiazole-2-carboxamido)pyridin-2-yloxy)cyclohexanecarboxylic acid] gave a half-maximal inhibitory concentration (IC50) of 31 nM.

As to `O=C(Nc1ccc(O[C@H]2CC[C@@H](C(=O)O)CC2)nc1)c1nnc(Nc2cccc(OC(F)(F)F)c2)o1` [Example 6, (1s,4s)-4-(5-(5-(3-(trifluoromethoxy)phenylamino)-1,3,4-oxadiazole-2-carboxamido)pyridin-2-yloxy)cyclohexanecarboxylic acid], 23 nM corresponded to half-maximal inhibition (IC50). This IC50 and that of the molecule before are within 1.5-fold of each other.

Molecule `O=C(Nc1ccc(O[C@H]2CC[C@@H](C(=O)O)CC2)nc1)c1nnc(Nc2cccc(Cl)c2)o1` [Example 7, (1s,4s)-4-(5-(5-(3-chlorophenylamino)-1,3,4-oxadiazole-2-carboxamido)pyridin-2-yloxy)cyclohexanecarboxylic acid] returned an IC50 of 10 nM.

In the case of `O=C(Nc1ccc(O[C@H]2CC[C@@H](C(=O)O)CC2)nc1)c1nnc(Nc2ccc(F)c(C(F)(F)F)c2)o1` [Example 8, (1s,4s)-4-(5-(5-(4-fluoro-3-(trifluoromethyl)phenylamino)-1,3,4-oxadiazole-2-carboxamido)pyridin-2-yloxy)cyclohexanecarboxylic acid], the IC50 was determined as 10 nM.

`CC(C)(C)c1ccc(Nc2nnc(C(=O)Nc3ccc(O[C@H]4CC[C@@H](C(=O)O)CC4)nc3)o2)cc1` [Example 9, (1s,4s)-4-(5-(5-(4-tert-butylphenylamino)-1,3,4-oxadiazole-2-carboxamido)pyridin-2-yloxy)cyclohexanecarboxylic acid] yielded an IC50 of 55 nM.

For `CC(C)c1ccc(Nc2nnc(C(=O)Nc3ccc(O[C@H]4CC[C@@H](C(=O)O)CC4)nc3)o2)cc1` [Example 10, (1s,4s)-4-(5-(5-(4-isopropylphenylamino)-1,3,4-oxadiazole-2-carboxamido)pyridin-2-yloxy)cyclohexanecarboxylic acid], the 50% inhibitory concentration (IC50) was determined as 19 nM.

As for `O=C(Nc1ccc(O[C@H]2CC[C@@H](C(=O)O)CC2)nc1)c1nnc(Nc2ccc(OC(F)(F)F)cc2)o1` [Example 11, (1s,4s)-4-(5-(5-(4-(trifluoromethoxy)phenylamino)-1,3,4-oxadiazole-2-carboxamido)pyridin-2-yloxy)cyclohexanecarboxylic acid], the IC50 came out at 7.2 nM.

Molecule `O=C(Nc1ccc(O[C@H]2CC[C@@H](C(=O)O)CC2)nc1)c1nnc(Nc2ccc(Cl)cc2Cl)o1` [Example 12, (1s,4s)-4-(5-(5-(2,4-dichlorophenylamino)-1,3,4-oxadiazole-2-carboxamido)pyridin-2-yloxy)cyclohexanecarboxylic acid] displayed a half-maximal inhibitory concentration (IC50) of 7.4 nM.

With `O=C(Nc1ccc(O[C@H]2CC[C@@H](C(=O)O)CC2)nc1)c1nnc(Nc2ccc(Br)cc2Cl)o1` [Example 13, (1s,4s)-4-(5-(5-(4-bromo-2-chlorophenylamino)-1,3,4-oxadiazole-2-carboxamido)pyridin-2-yloxy)cyclohexanecarboxylic acid], half-maximal inhibition (IC50) required 11 nM.

Turning to `O=C(Nc1ccc(O[C@H]2CC[C@@H](C(=O)O)CC2)nc1)c1nnc(Nc2cccc(Cl)c2Cl)o1` [Example 14, (1s,4s)-4-(5-(5-(2,3-dichlorophenylamino)-1,3,4-oxadiazole-2-carboxamido)pyridin-2-yloxy)cyclohexanecarboxylic acid], the 50% inhibitory concentration (IC50) was found to be 11 nM. In other words, the double-digit nanomolar range.

Molecule `Cc1ccc(Nc2nnc(C(=O)Nc3ccc(O[C@H]4CC[C@@H](C(=O)O)CC4)nc3)o2)cc1Cl` [Example 15, (1s,4s)-4-(5-(5-(3-chloro-4-methylphenylamino)-1,3,4-oxadiazole-2-carboxamido)pyridin-2-yloxy)cyclohexanecarboxylic acid] showed a half-inhibitory concentration (IC50) of 8 nM.

The molecule `O=C(Nc1ccc(O[C@H]2CC[C@@H](C(=O)O)CC2)nc1)c1nnc(Nc2ccc(F)c(Cl)c2)o1` [Example 16, (1s,4s)-4-(5-(5-(3-chloro-4-fluorophenylamino)-1,1,4-oxadiazole-2-carboxamido)pyridin-2-yloxy)cyclohexanecarboxylic acid] returned a 50% inhibitory concentration (IC50) of 3.8 nM.

`Cc1cc(NC(=O)c2nnc(Nc3ccc(F)c(F)c3)o2)cnc1O[C@H]1CC[C@@H](C(=O)O)CC1` [Example 17, (1s,4s)-4-(5-(5-(3,4-difluorophenylamino)-1,3,4-oxadiazole-2-carboxamido)-3-methylpyridin-2-yloxy)cyclohexanecarboxylic acid] returned an IC50 of 27 nM. Compared with the last molecule, the IC50 is about 7.1-fold higher.

With `Cc1cc(NC(=O)c2nnc(Nc3cccc(Cl)c3)o2)cnc1O[C@H]1CC[C@@H](C(=O)O)CC1` [Example 18, (1s,4s)-4-(5-(5-(3-chlorophenylamino)-1,3,4-oxadiazole-2-carboxamido)-3-methylpyridin-2-yloxy)cyclohexanecarboxylic acid], the IC50 is 21 nM.

As for `O=C(Nc1ccc(OC2CCC(C(=O)O)CC2)nc1)c1nnc(Nc2cc(F)c(F)cc2F)o1` (stereo not shown) [Example 19, 4-({5-[({5-[(2,4,5-trifluorophenyl)amino]-1,3,4-oxadiazol-2-yl}carbonyl)amino]pyridin-2-yl}oxy)cyclohexanecarboxylic acid], the IC50 is 12 nM.

`O=C(Nc1ccc(OC2CCC(C(=O)O)CC2)nc1)c1nnc(Nc2ccc(F)cc2)o1` (stereo not shown) [Example 20, 4-4-({5-[({5-[(4-fluorophenyl)amino]-1,3,4-oxadiazol-2-yl}-carbonyl)amino]pyridin-2-yl}oxy)cyclohexanecarboxylic acid] had an IC50 of 9.8 nM.

`O=C(Nc1ccc(OC2CCC(C(=O)O)CC2)nc1)c1nnc(Nc2ccc(OC(F)F)cc2)o1` (stereo not shown) [Example 21, 4-[(5-{[(5-{[4-(difluoromethoxy)phenyl]amino}-1,3,4-oxadiazol-2-yl)carbonyl]amino}pyridin-2-yl)oxy]cyclohexanecarboxylic acid] showed an IC50 of 11 nM. The IC50 values of the last two molecules are within 1.5-fold of each other.

Consider `O=C(Nc1ccc(O[C@H]2CC[C@H](C(=O)O)CC2)nc1)c1nnc(Nc2cc(F)c(F)cc2F)o1` [Example 22, (1r,4r)-4-(5-(5-(2,4,5-trifluorophenylamino)-1,3,4-oxadiazole-2-carboxamido)pyridin-2-yloxy)cyclohexanecarboxylic acid], for which the half-maximal inhibitory concentration (IC50) worked out at 36 nM.

`O=C(Nc1ccc(O[C@H]2CC[C@H](C(=O)O)CC2)nc1)c1nnc(Nc2ccc(Cl)cc2Cl)o1` [Example 23, (1r,4r)-4-(5-(5-(2,4-dichloro-phenylamino)-1,3,4-oxadiazole-2-carboxamido)pyridin-2-yloxy)cyclo-hexane-carboxylic acid] came in with an IC50 of 21 nM.

`O=C(Nc1ccc(O[C@H]2CC[C@H](C(=O)O)CC2)nc1)c1nnc(Nc2ccc(F)c(Cl)c2)o1` [Example 24, (1r,4r)-4-(5-(5-(3-chloro-4-fluoro-phenylamino)-1,3,4-oxadiazole-2-carboxamido)pyridin-2-yloxy)cyclo-hexane-carboxylic acid]: the IC50 stood at 20 nM.
